As a reminder, the IC50 is the midpoint of a concentration-inhibition curve.

Drawing on ChEMBL document CHEMBL3407458, “Design and synthesis of pyrazole-oxindole conjugates targeting tubulin polymerization as new anticancer agents” (Eur J Med Chem, 2015), this text covers IC50, INH and Activity for 22 compounds.

The source made the active and inactive calls. The rule behind the calls is not given here.

The subject of assay [1] is HeLa. The assay is described as follows: Cytotoxicity against human HeLa cells assessed as cell viability after 48 hrs by MTT assay. The assay is classed as functional, cell-based. A general note: Tetrazolium assays rely on reduction of a dye to a coloured formazan, in cell work by metabolically active cells.
A further assay relates to A549. The assay is described as follows: Cytotoxicity against human A549 cells assessed as cell viability after 48 hrs by MTT assay. The settings on record: A549, 48 h. The assay is classed as functional, cell-based.
The subject of the next assay is MCF7. Nature of the assay: Cytotoxicity against human MCF7 cells assessed as cell viability after 48 hrs by MTT assay. The assay is classed as functional, cell-based. The settings on record: MCF7, 48 h.
The next assay concerns DU-145. The assay is described as follows: Cytotoxicity against human DU145 cells assessed as cell viability after 48 hrs by MTT assay. The assay is classed as functional, cell-based. The settings on record: DU-145, 48 h.
A further assay concerns the target Tubulin (Bos taurus) (UniProt Q6B856+Q862L2+Q862F3). The assay is described as follows: Inhibition of bovine brain tubulin polymerization by fluorescence based tubulin polymerization assay.
Assay [2] relates to HeLa. Nature of the assay: Antimitotic activity against human HeLa cells assessed as cells accumulation at G2/M phase at 5 uM after 24 hrs by Propidium iodide staining based FACS/flow cytometry (reference value: 17.68%). The assay is classed as functional. (Flow cytometry measures light scatter and fluorescence of single cells or particles in a stream.)
The test system of assay [3] is HeLa. The assay is described as follows: Antimitotic activity against human HeLa cells assessed as cells accumulation at G2/M phase at 10 uM after 24 hrs by Propidium iodide staining based FACS/flow cytometry (reference value: 17.68%). The format is functional.
The subject of assay [4] is HeLa. The assay is described as follows: Antimicrotubule activity in human HeLa cells assessed as multipolar spindle fiber at 5 uM after 24 hrs. The format is functional, cell-based.
For the next assay, the species on record is Danio rerio. The assay is described as follows: Delay in development of wild type zebrafish embryo at 25 uM observed 28 hpf by stereomicroscopy. The format is functional, organism-based.
Assay [5] deals with HeLa. Nature of the assay: Antimicrotubule activity in human HeLa cells assessed as metaphase arrest at 5 uM after 24 hrs by immunohistochemistry. The assay is classed as functional, cell-based.

Consider `COc1ccc(-c2cc(/C=C3\C(=O)Nc4ccc([N+](=O)[O-])cc43)[nH]n2)cc1`, for which the IC50 was determined as 33 µM in the assay with HeLa [1], 22 µM in the assay with A549, 24 µM with MCF7 and 26 µM with DU-145. Moreover, the INH on Tubulin (Bos taurus) is 21 µM.

In the case of `COc1ccc(-c2cc(/C=C3\C(=O)Nc4ccc(Cl)cc43)[nH]n2)cc1`, the IC50 was 5 µM in the assay on HeLa [1], 6 µM in the assay on A549, 9.3 µM in the assay with MCF7 and 4 µM in the assay with DU-145. The Activity in the assay with HeLa [2] is given as 69.01%; in the assay on HeLa [3], 72.75%. Further, the result in the assay on HeLa [4] and in the assay listed under Danio rerio was Active. At Tubulin (Bos taurus), the INH is 8.1 µM.

Take `COC(=O)Nc1nc2cc(C(=O)c3cccs3)ccc2[nH]1` [NOCODAZOLE]: the IC50 in the assay with HeLa [1] worked out at 1.1 µM; with A549, 0.89 µM; with MCF7, 1.7 µM; in the assay on DU-145, 3.2 µM. Also, the INH on Tubulin (Bos taurus) is 2.2 µM. For the same compound, in the assay listed under Danio rerio, the outcome was Active.

As to `COc1cc(-c2cc(/C=C3\C(=O)Nc4ccc(Cl)cc43)[nH]n2)cc(OC)c1OC`, the IC50 with HeLa [1] is 12 µM; with A549 it was 27 µM; with MCF7, 44 µM; in the assay with DU-145 it was 21 µM. For the same compound, the INH at Tubulin (Bos taurus) was found to be 25.3 µM.

As for `O=C1Nc2cc(Cl)ccc2/C1=C/c1cc(-c2ccc3c(c2)OCO3)n[nH]1`, the IC50 in the assay on HeLa [1] was 7.3 µM; with A549 it was 27 µM; in the assay with MCF7, 18 µM; with DU-145 it was 24 µM. At Tubulin (Bos taurus), this compound yielded an INH of 14.5 µM.

Consider `COc1ccc2c(c1)/C(=C/c1cc(-c3ccc4c(c3)OCO4)n[nH]1)C(=O)N2`, for which the IC50 in the assay with HeLa [1] was determined as 13.5 µM; in the assay with A549, 24 µM; in the assay with MCF7 it was 9.8 µM; in the assay with DU-145, 34 µM. Also, the INH on Tubulin (Bos taurus) stood at 12 µM.

As for `COc1ccc(-c2cc(/C=C3\C(=O)Nc4ccc([N+](=O)[O-])cc43)[nH]n2)cc1OC`, the IC50 worked out at 36 µM in the assay with HeLa [1], 42 µM in the assay with A549, 42 µM in the assay on MCF7 and 28 µM with DU-145. In addition, at Tubulin (Bos taurus), the INH was found to be 18 µM.

Take `O=C1Nc2ccc(Cl)cc2/C1=C/c1cc(-c2ccc3c(c2)OCO3)n[nH]1`: the IC50 in the assay with HeLa [1] is 12 µM; with A549 it was 29 µM; in the assay with MCF7, 44 µM; in the assay on DU-145, 24 µM. In addition, at Tubulin (Bos taurus), the INH is 35.3 µM.

For the compound `COc1ccc(-c2cc(/C=C3\C(=O)Nc4cc(Cl)ccc43)[nH]n2)cc1OC`, the IC50 in the assay on HeLa [1] was 11 µM; with A549, 18 µM; with MCF7, 27 µM; with DU-145, 13.9 µM. This compound returned an INH at Tubulin (Bos taurus) of 18.9 µM.

As to `COc1ccc2c(c1)/C(=C/c1cc(-c3ccc(OC)c(OC)c3)n[nH]1)C(=O)N2`, the IC50 in the assay on HeLa [1] amounted to 13 µM; in the assay on A549 it was 15 µM; in the assay on MCF7 it was 32 µM; with DU-145, 34 µM. The compound further showed an INH on Tubulin (Bos taurus) of 22.1 µM.

For the compound `COc1cc(-c2cc(/C=C3\C(=O)Nc4cc(Cl)ccc43)[nH]n2)cc(OC)c1OC`, the IC50 stood at 11 µM with HeLa [1], 33 µM with A549, 22 µM in the assay on MCF7 and 27 µM with DU-145. In addition, the INH on Tubulin (Bos taurus) turned out to be 22.4 µM.

For `COc1cc(-c2cc(/C=C3\C(=O)Nc4ccc([N+](=O)[O-])cc43)[nH]n2)cc(OC)c1OC`, the IC50 was 30 µM with HeLa [1], 22 µM in the assay on A549, 16 µM in the assay on MCF7 and 20 µM with DU-145. In addition, the INH on Tubulin (Bos taurus) amounted to 15.3 µM.

With `COc1ccc(-c2cc(/C=C3\C(=O)Nc4ccc(Cl)cc43)[nH]n2)cc1OC`, the IC50 in the assay on HeLa [1] worked out at 10 µM; with A549, 24 µM; in the assay on MCF7 it was 16 µM; with DU-145 it was 21 µM. The INH at Tubulin (Bos taurus) worked out at 33.8 µM.

Turning to `COc1ccc(-c2cc(/C=C3\C(=O)Nc4ccc(OC)cc43)[nH]n2)cc1`, the IC50 with HeLa [1] was found to be 7.1 µM; in the assay with A549 it was 8 µM; in the assay on MCF7 it was 6 µM; in the assay on DU-145, 9 µM. For the same compound, the values for the Activity in the assay with HeLa [2] and in the assay with HeLa [3] were 60.19% and 60.38%, respectively. Besides, the outcome with HeLa [5] was Active. On Tubulin (Bos taurus), this compound showed an INH of 9.2 µM.

As for `COc1ccc(-c2cc(/C=C3\C(=O)Nc4ccccc43)[nH]n2)cc1`, the IC50 with HeLa [1] stood at 18 µM; with A549 it was 14 µM; in the assay on MCF7 it was 15 µM; in the assay on DU-145, 21 µM. On Tubulin (Bos taurus), this compound displayed an INH of 38.9 µM. The result in the assay listed under Danio rerio was Active.

Regarding `COc1ccc(-c2cc(/C=C3\C(=O)Nc4ccc(F)cc43)[nH]n2)cc1`, the IC50 in the assay with HeLa [1] was determined as 22 µM; in the assay with A549 it was 29 µM; in the assay with MCF7, 36 µM; in the assay on DU-145, 25 µM. This compound also registered an INH on Tubulin (Bos taurus) of 25 µM.

Take `O=C1Nc2ccc([N+](=O)[O-])cc2/C1=C/c1cc(-c2ccc3c(c2)OCO3)n[nH]1`: the IC50 came out at 24 µM in the assay on HeLa [1], 37 µM in the assay with A549, 17 µM with MCF7 and 36 µM in the assay on DU-145. Further, the INH at Tubulin (Bos taurus) turned out to be 14.7 µM.

Turning to `COc1ccc(-c2cc(/C=C3\C(=O)Nc4ccccc43)[nH]n2)cc1OC`, the IC50 in the assay on HeLa [1] is 21 µM; in the assay on A549, 29 µM; in the assay with MCF7 it was 36 µM; in the assay on DU-145, 31 µM. On Tubulin (Bos taurus), this compound yielded an INH of 23 µM.

For the compound `O=C1Nc2ccc(F)cc2/C1=C/c1cc(-c2ccc3c(c2)OCO3)n[nH]1`, the IC50 turned out to be 32 µM in the assay with HeLa [1], 26 µM in the assay on A549, 36 µM in the assay with MCF7 and 21 µM in the assay on DU-145. The same compound yielded an INH on Tubulin (Bos taurus) of 24 µM.

In the case of `COc1ccc2c(c1)/C(=C/c1cc(-c3cc(OC)c(OC)c(OC)c3)n[nH]1)C(=O)N2`, the IC50 turned out to be 16 µM with HeLa [1], 33 µM in the assay with A549, 8.8 µM in the assay with MCF7 and 9.1 µM with DU-145. Moreover, on Tubulin (Bos taurus), the INH stood at 16 µM.

In the case of `COc1cc(-c2cc(/C=C3\C(=O)Nc4ccccc43)[nH]n2)cc(OC)c1OC`, the IC50 in the assay with HeLa [1] was determined as 21 µM; with A549, 21 µM; in the assay on MCF7 it was 27 µM; in the assay with DU-145, 35 µM. In addition, the INH at Tubulin (Bos taurus) came to 18 µM.

For `COc1ccc(-c2cc(/C=C3\C(=O)Nc4cc(Cl)ccc43)[nH]n2)cc1`, the IC50 with HeLa [1] came to 2.4 µM; in the assay with A549, 3 µM; with MCF7 it was 3.6 µM; in the assay with DU-145, 3 µM. Besides, the Activity is given as 71.2% in the assay on HeLa [2] and 77.6% in the assay with HeLa [3]. Besides, the outcome with HeLa [4] and in the assay listed under Danio rerio was Active. In addition, at Tubulin (Bos taurus), the INH came out at 5.9 µM.
